{"source": "the NIST ThermoML archive (doi:10.1016/j.tca.2018.01.023)", "key": {"[1]": {"conditions": "Crystal; for molar entropy: 101.33 kPa, Small sample (50 mg) DSC"}, "[2]": {"experiment": "Molar enthalpy of transition or fusion", "conditions": "Crystal; DSC"}}, "note": "± gives the expanded uncertainty stated by the source.", "data": [{"compound": "[Ca+2].[O]=[Mo](=[O])([O-])[O-]", "note": "[calcium molybdate(VI)]", "values": [{"measurement": "molar entropy", "setting": "[1]; 298.15 K", "result": "122 ± 7.8", "unit": "J/K/mol"}, {"measurement": "molar entropy", "setting": "[1]; 310 K", "result": "126.5 ± 8.1", "unit": "J/K/mol"}, {"measurement": "molar entropy", "setting": "[1]; 315 K", "result": "128.4 ± 8.2", "unit": "J/K/mol"}, {"measurement": "molar entropy", "setting": "[1]; 320 K", "result": "130.3 ± 8.3", "unit": "J/K/mol"}, {"measurement": "molar entropy", "setting": "[1]; 325 K", "result": "132.1 ± 8.4", "unit": "J/K/mol"}, {"measurement": "molar entropy", "setting": "[1]; 330 K", "result": "133.9 ± 8.5", "unit": "J/K/mol"}, {"measurement": "molar entropy", "setting": "[1]; 335 K", "result": "135.7 ± 8.6", "unit": "J/K/mol"}, {"measurement": "molar entropy", "setting": "[1]; 340 K", "result": "137.5 ± 8.8", "unit": "J/K/mol"}, {"measurement": "molar entropy", "setting": "[1]; 345 K", "result": "139.3 ± 8.9", "unit": "J/K/mol"}, {"measurement": "molar entropy", "setting": "[1]; 350 K", "result": "141 ± 9", "unit": "J/K/mol"}, {"measurement": "molar entropy", "setting": "[1]; 355 K", "result": "142.8 ± 9.1", "unit": "J/K/mol"}, {"measurement": "molar entropy", "setting": "[1]; 360 K", "result": "144.5 ± 9.2", "unit": "J/K/mol"}, {"measurement": "molar entropy", "setting": "[1]; 365 K", "result": "146.2 ± 9.3", "unit": "J/K/mol"}, {"measurement": "molar entropy", "setting": "[1]; 370 K", "result": "147.9 ± 9.4", "unit": "J/K/mol"}, {"measurement": "molar entropy", "setting": "[1]; 375 K", "result": "149.6 ± 9.5", "unit": "J/K/mol"}, {"measurement": "molar entropy", "setting": "[1]; 380 K", "result": "151.2 ± 9.6", "unit": "J/K/mol"}, {"measurement": "molar entropy", "setting": "[1]; 385 K", "result": "152.9 ± 9.7", "unit": "J/K/mol"}, {"measurement": "molar entropy", "setting": "[1]; 390 K", "result": "154.5 ± 9.8", "unit": "J/K/mol"}, {"measurement": "molar entropy", "setting": "[1]; 395 K", "result": "156.1 ± 9.9", "unit": "J/K/mol"}, {"measurement": "molar entropy", "setting": "[1]; 400 K", "result": "157.7 ± 10", "unit": "J/K/mol"}, {"measurement": "molar entropy", "setting": "[1]; 410 K", "result": "160.9 ± 10", "unit": "J/K/mol"}, {"measurement": "molar entropy", "setting": "[1]; 420 K", "result": "164 ± 10", "unit": "J/K/mol"}, {"measurement": "molar entropy", "setting": "[1]; 430 K", "result": "167.1 ± 11", "unit": "J/K/mol"}, {"measurement": "molar entropy", "setting": "[1]; 440 K", "result": "170.1 ± 11", "unit": "J/K/mol"}, {"measurement": "molar entropy", "setting": "[1]; 450 K", "result": "173.1 ± 11", "unit": "J/K/mol"}, {"measurement": "molar entropy", "setting": "[1]; 460 K", "result": "176 ± 11", "unit": "J/K/mol"}, {"measurement": "molar entropy", "setting": "[1]; 470 K", "result": "178.8 ± 11", "unit": "J/K/mol"}, {"measurement": "molar entropy", "setting": "[1]; 480 K", "result": "181.7 ± 12", "unit": "J/K/mol"}, {"measurement": "molar entropy", "setting": "[1]; 490 K", "result": "184.5 ± 12", "unit": "J/K/mol"}, {"measurement": "molar entropy", "setting": "[1]; 500 K", "result": "187.2 ± 12", "unit": "J/K/mol"}, {"measurement": "molar entropy", "setting": "[1]; 510 K", "result": "189.9 ± 12", "unit": "J/K/mol"}, {"measurement": "molar entropy", "setting": "[1]; 520 K", "result": "192.6 ± 12", "unit": "J/K/mol"}, {"measurement": "molar entropy", "setting": "[1]; 530 K", "result": "195.2 ± 12", "unit": "J/K/mol"}, {"measurement": "molar entropy", "setting": "[1]; 540 K", "result": "197.8 ± 13", "unit": "J/K/mol"}, {"measurement": "molar entropy", "setting": "[1]; 550 K", "result": "200.3 ± 13", "unit": "J/K/mol"}, {"measurement": "molar entropy", "setting": "[1]; 560 K", "result": "202.8 ± 13", "unit": "J/K/mol"}, {"measurement": "molar entropy", "setting": "[1]; 570 K", "result": "205.3 ± 13", "unit": "J/K/mol"}, {"measurement": "molar entropy", "setting": "[1]; 580 K", "result": "207.7 ± 13", "unit": "J/K/mol"}, {"measurement": "molar entropy", "setting": "[1]; 590 K", "result": "210.1 ± 13", "unit": "J/K/mol"}, {"measurement": "molar entropy", "setting": "[1]; 600 K", "result": "212.5 ± 14", "unit": "J/K/mol"}, {"measurement": "molar entropy", "setting": "[1]; 620 K", "result": "217.2 ± 14", "unit": "J/K/mol"}, {"measurement": "molar entropy", "setting": "[1]; 640 K", "result": "221.7 ± 14", "unit": "J/K/mol"}, {"measurement": "molar entropy", "setting": "[1]; 660 K", "result": "226.1 ± 14", "unit": "J/K/mol"}, {"measurement": "molar entropy", "setting": "[1]; 680 K", "result": "230.4 ± 15", "unit": "J/K/mol"}, {"measurement": "molar entropy", "setting": "[1]; 700 K", "result": "234.6 ± 15", "unit": "J/K/mol"}, {"measurement": "molar entropy", "setting": "[1]; 720 K", "result": "238.7 ± 15", "unit": "J/K/mol"}, {"measurement": "molar entropy", "setting": "[1]; 740 K", "result": "242.8 ± 16", "unit": "J/K/mol"}, {"measurement": "molar entropy", "setting": "[1]; 760 K", "result": "246.7 ± 16", "unit": "J/K/mol"}, {"measurement": "molar entropy", "setting": "[1]; 766 K", "result": "247.8 ± 16", "unit": "J/K/mol"}, {"measurement": "Normal melting temperature", "setting": "[1]; DTA", "result": "1477 ± 8", "unit": "°C"}, {"measurement": "Molar enthalpy of transition or fusion", "setting": "[2]", "result": "102 ± 12", "unit": "kJ/mol"}]}]}
